Results from ChEMBL document CHEMBL1201862, “PubChem BioAssay data set” (2004).
Values belong to the compound of their own block, whether it stands above or below them. The source made the active and inactive calls. Rule as the data show it, for most assays here: actives have a measured IC50 and inactives only a lower limit.

Legend:
[1] = target: Glyceraldehyde-3-phosphate dehydrogenase (Homo sapiens, UniProt P04406)
[2] = target: Alkaline phosphatase, placental type (Homo sapiens, UniProt P05187); test: PLAP enzyme inhibitors, confirmation, biochemical, luminescence (AID 1512); assay type: functional
[3] = target: T1, Tyrosine-protein phosphatase non-receptor type 22 (Homo sapiens, UniProt Q9Y2R2); test: SAR LYP1 Fluorescent Assay using OMFP substrate for In Vitro dose response studies - Set 3. [Related pubchem assays (depositor defined):AID1779, AID1784, AID2140, AID2686]; assay type: functional
T1 sequence (Q9Y2R2 whole entry): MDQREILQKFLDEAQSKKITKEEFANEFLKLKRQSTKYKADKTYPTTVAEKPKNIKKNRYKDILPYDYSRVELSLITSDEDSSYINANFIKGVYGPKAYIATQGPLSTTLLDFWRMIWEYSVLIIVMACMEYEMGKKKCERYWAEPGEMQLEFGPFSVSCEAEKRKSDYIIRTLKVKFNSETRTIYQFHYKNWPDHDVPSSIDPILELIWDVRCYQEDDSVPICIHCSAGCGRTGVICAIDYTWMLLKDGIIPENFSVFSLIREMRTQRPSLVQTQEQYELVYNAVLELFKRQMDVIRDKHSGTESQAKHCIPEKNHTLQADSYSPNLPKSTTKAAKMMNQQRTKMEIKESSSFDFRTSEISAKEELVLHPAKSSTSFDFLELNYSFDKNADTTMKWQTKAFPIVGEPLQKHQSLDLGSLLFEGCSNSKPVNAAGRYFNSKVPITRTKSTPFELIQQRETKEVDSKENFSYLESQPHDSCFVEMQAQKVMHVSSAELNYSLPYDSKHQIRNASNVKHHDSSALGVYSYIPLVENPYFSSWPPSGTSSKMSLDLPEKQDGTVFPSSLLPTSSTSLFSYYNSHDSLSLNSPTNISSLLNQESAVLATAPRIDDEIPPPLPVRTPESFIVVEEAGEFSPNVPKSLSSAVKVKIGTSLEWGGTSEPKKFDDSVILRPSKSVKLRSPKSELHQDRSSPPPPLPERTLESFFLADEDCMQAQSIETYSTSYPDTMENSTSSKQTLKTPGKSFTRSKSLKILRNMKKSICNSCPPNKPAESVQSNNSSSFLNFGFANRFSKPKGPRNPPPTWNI

[4] = target: T2, Tyrosine-protein phosphatase non-receptor type 7 (Homo sapiens, UniProt P35236); test: HePTP (PTPN7) phosphatase inhibitor potency, SAR follow-up, biochemical, set 2 (AID 449736); assay type: functional
T2 sequence (P35236 whole entry): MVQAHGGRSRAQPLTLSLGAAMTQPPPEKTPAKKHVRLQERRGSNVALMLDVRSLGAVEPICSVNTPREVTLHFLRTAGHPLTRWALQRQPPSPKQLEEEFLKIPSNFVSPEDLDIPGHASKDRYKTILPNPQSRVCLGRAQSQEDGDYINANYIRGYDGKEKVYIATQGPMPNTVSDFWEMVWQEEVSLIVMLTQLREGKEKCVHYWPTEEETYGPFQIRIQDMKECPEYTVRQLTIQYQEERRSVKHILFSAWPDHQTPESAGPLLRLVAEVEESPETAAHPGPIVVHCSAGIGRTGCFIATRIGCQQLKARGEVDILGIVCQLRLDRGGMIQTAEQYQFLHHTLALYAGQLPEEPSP

[5] = target: T1, Tyrosine-protein phosphatase non-receptor type 22; test: LYP (PTPN22) phosphatase inhibitor potency, SAR follow-up, biochemical, pCAP fluorogenic substrate, fluorescence, set 3 (AID 449727); assay type: functional
[6] = target: Tyrosine-protein phosphatase non-receptor type 12 (Homo sapiens, UniProt Q05209); test: SAR Selectivity Analysis of small molecule inhibitors of PEST using pCAP in a fluorescence assay. [Related pubchem assays (depositor defined):AID1779, AID1784, AID2135]; assay type: functional
[7] = target: Eukaryotic translation initiation factor 4E (Mus musculus, UniProt P63073); test: eIF4E–eIF4G protein interaction inhibitors, dose response, biochemical, TR-FRET (AID 855); assay type: functional;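 also: potency for disrupting eIF4E binding to eIF4GI seen as loss of FRET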
Hexokinase HKDC1 = target: T3, Hexokinase HKDC1 (Homo sapiens, UniProt Q2TB90); test: HKDC1 hexokinase activators, dose response, biochemical, W721R variant (AID 504730); assay type: functional
T3 sequence (Q2TB90 whole entry): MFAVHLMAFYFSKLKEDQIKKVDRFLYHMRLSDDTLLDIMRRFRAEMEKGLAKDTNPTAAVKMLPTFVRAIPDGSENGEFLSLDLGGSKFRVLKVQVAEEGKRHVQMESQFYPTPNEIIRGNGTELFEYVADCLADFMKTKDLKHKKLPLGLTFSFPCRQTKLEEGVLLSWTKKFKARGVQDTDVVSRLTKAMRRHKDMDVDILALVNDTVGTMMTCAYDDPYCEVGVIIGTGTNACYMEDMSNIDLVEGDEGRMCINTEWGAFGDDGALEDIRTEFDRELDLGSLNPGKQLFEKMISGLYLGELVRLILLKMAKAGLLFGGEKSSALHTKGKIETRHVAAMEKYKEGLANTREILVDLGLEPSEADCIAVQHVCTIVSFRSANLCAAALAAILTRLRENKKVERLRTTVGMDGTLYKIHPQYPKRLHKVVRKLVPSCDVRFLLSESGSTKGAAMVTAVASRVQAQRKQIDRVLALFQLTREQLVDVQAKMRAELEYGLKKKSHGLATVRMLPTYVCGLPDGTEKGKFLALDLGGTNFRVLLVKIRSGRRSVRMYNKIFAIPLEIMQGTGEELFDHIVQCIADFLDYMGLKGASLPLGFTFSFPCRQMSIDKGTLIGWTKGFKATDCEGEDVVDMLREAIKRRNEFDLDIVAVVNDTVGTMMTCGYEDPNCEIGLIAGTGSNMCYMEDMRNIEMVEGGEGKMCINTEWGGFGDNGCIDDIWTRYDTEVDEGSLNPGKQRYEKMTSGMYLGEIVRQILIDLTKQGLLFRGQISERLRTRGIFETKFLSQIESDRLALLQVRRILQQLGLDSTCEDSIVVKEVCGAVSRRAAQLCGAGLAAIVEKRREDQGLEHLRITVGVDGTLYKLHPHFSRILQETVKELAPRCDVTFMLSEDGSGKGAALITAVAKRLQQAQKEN

[8] = target: DNA dC->dU-editing enzyme APOBEC-3A (Homo sapiens, UniProt P31941); test: Dose Response confirmation of small molecule APOBEC3A DNA Deaminase Inhibitors via a fluorescence-based single-stranded DNA deaminase assay. [Related pubchem assays (depositor defined):AID493011, AID493024]; assay type: functional
[9] = target: DNA dC->dU-editing enzyme APOBEC-3G (Homo sapiens, UniProt Q9HC16); assay type: functional;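 also: Dose-response counterscreen measuring inhibition of APOBEC3G DNA deaminase activity, run while confirming APOBEC3A inhibitors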
Chain of DNA dC->dU-editing enzyme APOBEC-3G (Q9HC16 whole entry): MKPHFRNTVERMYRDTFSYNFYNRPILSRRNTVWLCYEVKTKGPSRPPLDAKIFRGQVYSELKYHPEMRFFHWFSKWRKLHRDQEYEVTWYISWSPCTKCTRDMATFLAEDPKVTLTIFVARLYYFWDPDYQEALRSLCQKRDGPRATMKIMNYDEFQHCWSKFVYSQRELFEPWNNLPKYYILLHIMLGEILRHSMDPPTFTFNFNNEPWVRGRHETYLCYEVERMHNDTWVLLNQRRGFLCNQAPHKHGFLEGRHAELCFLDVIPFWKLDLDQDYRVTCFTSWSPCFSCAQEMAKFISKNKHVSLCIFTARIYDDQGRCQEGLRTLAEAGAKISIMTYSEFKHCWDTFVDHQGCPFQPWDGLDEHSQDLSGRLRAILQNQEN

Chain of Glyceraldehyde-3-phosphate dehydrogenase (P04406 whole entry): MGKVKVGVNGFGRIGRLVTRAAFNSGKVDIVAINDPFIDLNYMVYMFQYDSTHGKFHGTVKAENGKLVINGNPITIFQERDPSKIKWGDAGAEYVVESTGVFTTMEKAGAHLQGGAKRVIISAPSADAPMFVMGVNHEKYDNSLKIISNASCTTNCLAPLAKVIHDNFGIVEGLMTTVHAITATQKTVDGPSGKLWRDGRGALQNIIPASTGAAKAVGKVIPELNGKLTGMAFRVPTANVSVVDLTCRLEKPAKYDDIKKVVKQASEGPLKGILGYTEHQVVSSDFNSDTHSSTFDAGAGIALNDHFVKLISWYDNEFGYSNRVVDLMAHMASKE
Chain of Tyrosine-protein phosphatase non-receptor type 12 (Q05209 whole entry): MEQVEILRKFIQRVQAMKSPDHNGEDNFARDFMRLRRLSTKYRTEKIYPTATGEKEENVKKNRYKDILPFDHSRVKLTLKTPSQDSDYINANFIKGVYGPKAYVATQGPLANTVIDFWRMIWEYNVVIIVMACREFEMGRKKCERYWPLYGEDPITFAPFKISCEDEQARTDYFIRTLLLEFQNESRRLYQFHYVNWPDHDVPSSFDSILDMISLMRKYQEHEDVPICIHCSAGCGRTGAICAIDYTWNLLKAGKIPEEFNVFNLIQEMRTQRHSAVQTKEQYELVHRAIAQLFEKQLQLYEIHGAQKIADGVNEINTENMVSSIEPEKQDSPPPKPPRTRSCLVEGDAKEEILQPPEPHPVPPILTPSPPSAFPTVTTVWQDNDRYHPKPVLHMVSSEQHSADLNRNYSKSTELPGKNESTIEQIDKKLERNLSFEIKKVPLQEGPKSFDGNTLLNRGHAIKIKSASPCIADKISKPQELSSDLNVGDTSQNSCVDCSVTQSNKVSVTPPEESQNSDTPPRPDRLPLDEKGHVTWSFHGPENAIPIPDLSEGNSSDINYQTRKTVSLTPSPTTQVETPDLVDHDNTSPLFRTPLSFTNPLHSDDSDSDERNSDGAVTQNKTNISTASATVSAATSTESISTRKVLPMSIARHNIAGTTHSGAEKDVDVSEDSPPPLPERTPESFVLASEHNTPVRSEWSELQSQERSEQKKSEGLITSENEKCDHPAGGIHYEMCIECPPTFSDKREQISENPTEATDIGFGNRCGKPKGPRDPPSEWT
Chain of DNA dC->dU-editing enzyme APOBEC-3A (P31941 whole entry): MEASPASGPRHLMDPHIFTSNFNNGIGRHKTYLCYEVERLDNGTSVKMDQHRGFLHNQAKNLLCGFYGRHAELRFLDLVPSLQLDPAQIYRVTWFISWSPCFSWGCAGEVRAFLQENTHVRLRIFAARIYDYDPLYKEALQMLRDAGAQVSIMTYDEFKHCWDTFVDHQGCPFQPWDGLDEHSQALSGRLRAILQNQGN
Chain of Eukaryotic translation initiation factor 4E (P63073 whole entry): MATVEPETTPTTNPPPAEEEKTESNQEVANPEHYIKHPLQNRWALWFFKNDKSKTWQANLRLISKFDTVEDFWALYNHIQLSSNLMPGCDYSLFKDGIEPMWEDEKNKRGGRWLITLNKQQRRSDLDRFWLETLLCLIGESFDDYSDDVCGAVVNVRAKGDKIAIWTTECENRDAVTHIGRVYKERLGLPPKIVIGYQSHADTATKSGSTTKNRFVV
Chain of Alkaline phosphatase, placental type (P05187 whole entry): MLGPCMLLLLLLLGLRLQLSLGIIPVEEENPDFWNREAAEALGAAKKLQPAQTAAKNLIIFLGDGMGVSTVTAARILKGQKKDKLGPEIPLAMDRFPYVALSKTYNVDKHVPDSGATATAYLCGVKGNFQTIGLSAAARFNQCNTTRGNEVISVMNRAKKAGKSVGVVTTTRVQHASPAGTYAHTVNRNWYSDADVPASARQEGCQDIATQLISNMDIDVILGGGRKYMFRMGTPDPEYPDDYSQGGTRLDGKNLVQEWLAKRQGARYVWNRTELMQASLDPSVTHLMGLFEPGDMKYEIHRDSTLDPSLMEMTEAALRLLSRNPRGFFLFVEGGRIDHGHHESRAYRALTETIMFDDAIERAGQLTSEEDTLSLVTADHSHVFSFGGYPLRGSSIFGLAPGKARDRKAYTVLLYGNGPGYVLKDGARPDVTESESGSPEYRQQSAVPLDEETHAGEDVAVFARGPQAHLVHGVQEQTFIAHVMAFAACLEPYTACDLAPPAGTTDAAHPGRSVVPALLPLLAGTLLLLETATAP

IC50 [1]: > 100 µM (not active) | IC50 [2]: > 100 µM (inactive)
SMILES: CN1CCN(C(=O)c2cc(-c3ccc(Cl)cc3Cl)n[nH]2)CC1

IC50 [3]: 44.5 µM (active) | IC50 [4]: 0.331 µM (active) | IC50 [5]: 8.93 µM (active) | IC50 [6]: 3.13 µM (active) | IC50 [7]: 16.4 µM (active)
SMILES: COc1ccc(CN2C(=O)/C(=C/c3ccc(-c4ccc(Cl)c(C(=O)O)c4)o3)SC2=S)cc1

EC50 (Hexokinase HKDC1): > 80 µM (inactive)
SMILES: O=C(COC(=O)c1n[nH]c2ccccc12)c1cccc(Br)c1

SMILES: CSc1ccc(S(=O)(=O)N2CCC(C(=O)NCc3ccccn3)CC2)cc1
IC50 [8]: 6.18 µM (active) | IC50 [9]: 13.9 µM (active)
